Results: patent publication EP2963103A1, “pH-sensitive nanocapsules” (Henkel AG & Co. KGaA, priority 2014, dated 2016)

Key:
[1] = Encapsulation efficiency EEsc / solid content, gravimetric after freeze-drying; type: physicochemical; conditions: fragrance encapsulated with Monomermischung S1
Text: Der Feststoffgehalt (SC) wurde […] Proben bestimmt. Vorher wurden zwei verschiedene theoretische Feststoffgehalte berechnet. SC1 ohne die Masse des Riechstoffs und SC2 […] Bestimmung des […] und […] bei der Messung des Feststoffgehalts SC2 mitbestimmt. Unter […] bei Polymerisation kann durch den Vergleich des praktisch gemessenen Feststoffgehalts SC mit den oben genannten theoretischen Werten die Menge an […]. Der Anteil an […] zur Einsatzmenge bei […].: Encapsulation Efficiency) EEsc in Prozent angegeben. Der theoretisch berechneten Feststoffgehalt SC1 betrugt 14,3%. Die Angabe […] 1 zeigt, dass der Riechstoff eingeschlossen wurde und […]. Die […]. Die in den Beispielen 1 und 2 verwendete Monomermischung S1 wurde für die Verkapselung weiterer Riechstoffe verwendet und die […] oben […]. Die […]

[2] = Hansen-Parameter, δt^2 = δd^2 + δp^2 + δh^2
Text: Damit die hydrophobe Verbindung effektiv verkapselt werden kann, ist es erforderlich, dass die Verbindung ausreichend hydrophob ist, so dass sie nicht mit dem aus den Monomeren gebildeten Polymer derart interagiert, dass sie dieses übermäßig quellen und dadurch für die Verbindung stärker permeabel werden lässt. Es ist daher bevorzugt, dass die mindestens eine hydrophobe Verbindung einen Hansen-Parameter δt von weniger als 20, insbesondere weniger als 19 hat; und/oder einen Hansen-Parameter δh von weniger als 10, insbesondere weniger als 6 hat.
Der Hansen-Parameter ist ein in der Polymerchemie weit verbreiteter Parameter zum Vergleich der Löslichkeit bzw. Mischbarkeit von verschiedenen Substanzen. Dieser Parameter wurde von Charles Hansen entwickelt, um die Löslichkeit eines Materials in einem anderen vorherzusagen. Dabei wird die Kohäsionsenergie einer Flüssigkeit betrachtet, welche in mindestens drei verschiedene Kräfte eingeteilt werden kann: (a) Dispersionskräfte zwischen den Molekülen δd, (b) Dipolare intermolekulare Kräfte zwischen den Molekülen δp und (c) Wasserstoffbrückenbindungen zwischen den Molekülen δh. Diese drei Parameter können zu einem Parameter δt zusammengefasst werden nach der Formel δt^2 = δd^2 + δp^2 + δh^2. Je ähnlicher der Hansen-Parameter von unterschiedlichen Materialien ist, desto besser sind diese ineinander mischbar.
Tabelle 3 gibt die Hansen-Parameter für die getesteten Riechstoffe an. Tabelle 3: Hansen-Parameter

[3] = Hansen-Parameter, cited from earlier work; for δp: dipolar forces; for δd: dispersion forces; for δh: hydrogen bonds

For `CC(C)=CCCC(C)CC=O` (centres unmarked) [Citronellal], the “Verkapselungseffizienz EEsc” value [1] is given as 72%, the δt [2] is given as 18,01 and the δp [3] is given as 5,9. The δd [3] was 16,2 and the δh [3] was 5,2.
For `CC(C)=CCCC(C)CCO` (centres unmarked) [Citronellol], the “Verkapselungseffizienz EEsc” value [1] is listed as 25%, the δt [2] is listed as 19,97 and the δp [3] is listed as 4,8. The δd [3] was 16,1 and the δh [3] was 10,8.
For `C=CC(C)CCCC(C)(C)O` (centres unmarked) [Dihydromyrcenol], the “Verkapselungseffizienz EEsc” value [1] is listed as 4%, the δt [2] is listed as 19,72 and the δp [3] is listed as 4,3. The δd [3] was 16 and the δh [3] was 10,7.
With `CC(C)=CCC/C(C)=C/CO` [Geraniol] the “Verkapselungseffizienz EEsc” value [1] was 0% and the δt [2] was 20,25.
For `CC/C=C\CC1=C(C)CCC1=O` [Jasmone], the δt [2] is listed as 18,49, the δp [3] is listed as 5,2 and the δd [3] is listed as 17. The δh [3] was 5,1.
For `CC(C=O)Cc1ccc(C(C)(C)C)cc1` (centres unmarked) [Lilial, 3-(4-tert-Butylphenyl)-2-methylpropanal], the “Verkapselungseffizienz EEsc” value [1] is listed as 77%, the δt [2] is listed as 18,10 and the δp [3] is listed as 2,3. For the same molecule, the δd [3] was 17,3 and the δh [3] was 4,8.
In the case of `OCCc1ccccc1` [Phenylethylalkohol], the δt [2] is listed as 24,09, the δp [3] is listed as 7,6 and the δd [3] is listed as 18,8. For the same molecule, the δh [3] was 13.
In the case of `C/C=C\C(=O)C1C(C)=CCCC1(C)C` (stereo not drawn) [α-Damascone], the “Verkapselungseffizienz EEsc” value [1] is given as 52%, the δt [2] is given as 18,94 and the δp [3] is given as 5,7. The δd [3] was 17,1 and the δh [3] was 5,8.
In the case of `CC1=CCC2CC1C2(C)C` (stereo not drawn) [α-Pinen], the “Verkapselungseffizienz EEsc” value [1] is given as 91%, the δp [3] is given as 4,3 and the δd [3] is given as 15,6. The δh [3] was 0.
For `C/C=C/C(=O)C1=C(C)CCCC1(C)C` [β-Damascone], the “Verkapselungseffizienz EEsc” value [1] is given as 72%, the δt [2] is given as 18,84 and the δp [3] is given as 4,9. For the same molecule, the δd [3] was 17,4 and the δh [3] was 5,3.
In the case of Hexenol, the “Verkapselungseffizienz EEsc” value [1] is listed as 0%, the δp [3] is listed as 6,7 and the δd [3] is listed as 16. The δh [3] was 13,4.
For Ionon, the “Verkapselungseffizienz EEsc” value [1] is listed as 46%, the δt [2] is listed as 18,94 and the δp [3] is listed as 5,7. For the same molecule, the δd [3] was 17,1 and the δh [3] was 5,8.
